Patent US12552783B2, “Modulators of proteolysis and associated methods of use” (Arvinas Operations, Inc., priority 2018, dated 2026)

Molecular target: KRas (Homo sapiens, UniProt P01116, G12C)
Experiment: KRas degradation in NCI-H2030 cells by Western blot, normalized to GAPDH (data of Table 14)
Type: cell-based
Parameters: host or cells: NCI-H2030
Conditions: for Dmax: NCI-H2030
How it was run: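 Readout: GAPDH-normalized KRas immunoblot signal, expressed as percent degradation versus 0.1% DMSO vehicle. Treatment: 0.3, 1, 3 μM after 24 h starvation; 24 h (VHL-based) or 72 h (others).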

| Percent Degradation at Indicated Concentration (μM) (H2030 cells, 0.3 μM) | Percent Degradation at Indicated Concentration (μM) (H2030 cells, 1 μM) | Percent Degradation at Indicated Concentration (μM) (H2030 cells, 3 μM) | Percent Degradation at Indicated Concentration (μM) (H2030, 0.3 μM) | Percent Degradation at Indicated Concentration (μM) (H2030, 1 μM) | Percent Degradation at Indicated Concentration (μM) (H2030, 3 μM) | Dmax | Percent Degradation at Indicated Concentration (μM): 0.3 (H2030 cells, 0.3 μM) | Percent Degradation at Indicated Concentration (μM): 1 (H2030 cells, 1 μM) | Percent Degradation at Indicated Concentration (μM): 3 (H2030 cells, 3 μM) | Dmax (H2030 cells) | Structure (SMILES) |
| --- | --- | --- | --- | --- | --- | --- | --- | --- | --- | --- | --- |
| C (Percent Degradation: C ≤ 35) | C (Percent Degradation: C ≤ 35) | C (Percent Degradation: C ≤ 35) |  |  |  |  |  |  |  |  | CN(CCOCCOCCOc1ccc2c(c1)C(=O)N(C1CCC(=O)NC1=O)C2=O)C(=O)CCNc1nc(N2CCN(C(=O)C(O)O)CC2)c2cc(Cl)c(-c3c(O)cccc3F)c(F)c2n1 [compound 152, 3-(((R)-6-chloro-4-(4-(2,2-dihydroxyacetyl)piperazin-1-yl)-8-fluoro-7-(2-fluoro-6-hydroxyphenyl)quinazolin-2-yl)amino)-N-(2-(2-(2-((2-(2,6-dioxopiperidin-3-yl)-1,3-dioxoisoindolin-5-yl)oxy)ethoxy)ethoxy)ethyl)-N-methylpropanamide] |
|  |  |  | C (Percent Degradation: C ≤ 35) | C (Percent Degradation: C ≤ 35) | C (Percent Degradation: C ≤ 35) | ≤ 35% |  |  |  |  | O=C1CCC(N2C(=O)c3ccc(OCCOCC/C=C/C(=O)N4CCN(c5ncnc6c(F)c(-c7cc(O)cc8ccccc78)c(Cl)cc56)CC4)cc3C2=O)C(=O)N1 (centres unmarked) [compound 168, (E)-5-(2-((5-(4-(6-chloro-8-fluoro-7-(3-hydroxynaphthalen-1-yl)quinazolin-4-yl)piperazin-1-yl)-5-oxopent-3-en-1-yl)oxy)ethoxy)-2-(2,6-dioxopiperidin-3-yl)isoindoline-1,3-dione] |
|  |  |  | C (Percent Degradation: C ≤ 35) | C (Percent Degradation: C ≤ 35) | C (Percent Degradation: C ≤ 35) | ≤ 35% |  |  |  |  | O=C1CCC(N2C(=O)c3ccc(OCCOCCOCCOCC/C=C/C(=O)N4CCN(c5ncnc6c(F)c(-c7cc(O)cc8ccccc78)c(Cl)cc56)CC4)cc3C2=O)C(=O)N1 (centres unmarked) [compound 170, (E)-5-(2-(2-(2-((5-(4-(6-chloro-8-fluoro-7-(3-hydroxynaphthalen-1-yl)quinazolin-4-yl)piperazin-1-yl)-5-oxopent-3-en-1-yl)oxy)ethoxy)ethoxy)ethoxy)-2-(2,6-dioxopiperidin-3-yl)isoindoline-1,3-dione] |
|  |  |  | C (Percent Degradation: C ≤ 35) | C (Percent Degradation: C ≤ 35) | C (Percent Degradation: C ≤ 35) | ≤ 35% |  |  |  |  | CN(C)C(=O)CCNc1nc(N2CCN(C(=O)/C=C/CCOCCOc3ccc4c(c3)C(=O)N(C3CCC(=O)NC3=O)C4=O)CC2)c2cc(Cl)c(-c3cc(O)cc4ccccc34)c(F)c2n1 (centres unmarked) [compound 172, (E)-3-((6-chloro-4-(4-(5-(2-((2-(2,6-dioxopiperidin-3-yl)-1,3-dioxoisoindolin-5-yl)oxy)ethoxy)pent-2-enoyl)piperazin-1-yl)-8-fluoro-7-(3-hydroxynaphthalen-1-yl)quinazolin-2-yl)amino)-N,N-dimethylpropanamide] |
|  |  |  | C (Percent Degradation: C ≤ 35) | C (Percent Degradation: C ≤ 35) | C (Percent Degradation: C ≤ 35) | ≤ 35% |  |  |  |  | CN(C)C(=O)CCNc1nc(N2CCN(C(=O)/C=C/CCOCCOCCOCCOc3ccc4c(c3)C(=O)N(C3CCC(=O)NC3=O)C4=O)CC2)c2cc(Cl)c(-c3cc(O)cc4ccccc34)c(F)c2n1 (centres unmarked) [compound 174, (E)-3-((6-chloro-4-(4-(5-(2-(2-(2-((2-(2,6-dioxopiperidin-3-yl)-1,3-dioxoisoindolin-5-yl)oxy)ethoxy)ethoxy)ethoxy)pent-2-enoyl)piperazin-1-yl)-8-fluoro-7-(3-hydroxynaphthalen-1-yl)quinazolin-2-yl)amino)-N,N-dimethylpropanamide] |
|  |  |  | C (Percent Degradation: C ≤ 35) | C (Percent Degradation: C ≤ 35) | C (Percent Degradation: C ≤ 35) | ≤ 35% |  |  |  |  | Cc1ncsc1-c1ccc([C@H](C)NC(=O)[C@@H]2C[C@@H](O)CN2C(=O)[C@@H](NC(=O)COCCOCCN(C)C(=O)CCNc2nc(N3CCN(C(N)=O)CC3)c3cc(Cl)c(-c4cc(O)cc5ccccc45)c(F)c3n2)C(C)(C)C)cc1 [compound 182, 4-(6-chloro-8-fluoro-2-(((S)-14-((2S,4R)-4-hydroxy-2-(((S)-1-(4-(4-methylthiazol-5-yl)phenyl)ethyl)carbamoyl)pyrrolidine-1-carbonyl)-4,15,15-trimethyl-3,12-dioxo-7,10-dioxa-4,13-diazahexadecyl)amino)-7-(3-hydroxynaphthalen-1-yl)quinazolin-4-yl)piperazine-1-carboxamide] |
|  |  |  | C (Percent Degradation: C ≤ 35) | C (Percent Degradation: C ≤ 35) | C (Percent Degradation: C ≤ 35) | ≤ 35% |  |  |  |  | Cc1ncsc1-c1ccc([C@H](C)NC(=O)[C@@H]2C[C@@H](O)CN2C(=O)[C@@H](NC(=O)COCCOCCOCCOCCN(C)C(=O)CCNc2nc(N3CCN(C(N)=O)CC3)c3cc(Cl)c(-c4cc(O)cc5ccccc45)c(F)c3n2)C(C)(C)C)cc1 [compound 184, 4-(6-chloro-8-fluoro-2-(((S)-20-((2S,4R)-4-hydroxy-2-(((S)-1-(4-(4-methylthiazol-5-yl)phenyl)ethyl)carbamoyl)pyrrolidine-1-carbonyl)-4,21,21-trimethyl-3,18-dioxo-7,10,13,16-tetraoxa-4,19-diazadocosyl)amino)-7-(3-hydroxynaphthalen-1-yl)quinazolin-4-yl)piperazine-1-carboxamide] |
|  |  |  |  |  |  |  | C (C ≤ 35) | C (C ≤ 35) | C (C ≤ 35) | ≤ 35% | CCC(=O)N1CCN(c2nc(NCCC(=O)N(C)CCOCC(=O)N[C@H](C(=O)N3C[C@H](O)C[C@H]3C(=O)N[C@@H](C)c3ccc(-c4scnc4C)cc3)C(C)(C)C)nc3c(F)c(-c4cc(O)cc5ccccc45)c(Cl)cc23)CC1 [compound 186, (2S,4R)-1-((2S)-2-(2-(2-(3-((6-chloro-8-fluoro-7-(3-hydroxynaphthalen-1-yl)-4-(4-propionylpiperazin-1-yl)quinazolin-2-yl)amino)-N-methylpropanamido)ethoxy)acetamido)-3,3-dimethylbutanoyl)-4-hydroxy-N-((S)-1-(4-(4-methylthiazol-5-yl)phenyl)ethyl)pyrrolidine-2-carboxamide] |
|  |  |  |  |  |  |  | C (C ≤ 35) | C (C ≤ 35) | C (C ≤ 35) | ≤ 35% | CCC(=O)N1CCN(c2nc(NCCC(=O)N(C)CCOCCOCC(=O)N[C@H](C(=O)N3C[C@H](O)C[C@H]3C(=O)N[C@@H](C)c3ccc(-c4scnc4C)cc3)C(C)(C)C)nc3c(F)c(-c4cc(O)cc5ccccc45)c(Cl)cc23)CC1 [compound 187, (2S,4R)-1-((2S)-2-(tert-butyl)-15-((6-chloro-8-fluoro-7-(3-hydroxynaphthalen-1-yl)-4-(4-propionylpiperazin-1-yl)quinazolin-2-yl)amino)-12-methyl-4,13-dioxo-6,9-dioxa-3,12-diazapentadecanoyl)-4-hydroxy-N-((S)-1-(4-(4-methylthiazol-5-yl)phenyl)ethyl)pyrrolidine-2-carboxamide] |
|  |  |  |  |  |  |  | C (C ≤ 35) | C (C ≤ 35) | C (C ≤ 35) | ≤ 35% | CCC(=O)N1CCN(c2nc(NCCC(=O)N(C)CCOCCOCCOCC(=O)N[C@H](C(=O)N3C[C@H](O)C[C@H]3C(=O)N[C@@H](C)c3ccc(-c4scnc4C)cc3)C(C)(C)C)nc3c(F)c(-c4cc(O)cc5ccccc45)c(Cl)cc23)CC1 [compound 188, (2S,4R)-1-((2S)-2-(tert-butyl)-18-((6-chloro-8-fluoro-7-(3-hydroxynaphthalen-1-yl)-4-(4-propionylpiperazin-1-yl)quinazolin-2-yl)amino)-15-methyl-4,16-dioxo-6,9,12-trioxa-3,15-diazaoctadecanoyl)-4-hydroxy-N-((S)-1-(4-(4-methylthiazol-5-yl)phenyl)ethyl)pyrrolidine-2-carboxamide] |
|  |  |  |  |  |  |  | C (C ≤ 35) | C (C ≤ 35) | C (C ≤ 35) | ≤ 35% | CCC(=O)N1CCN(c2nc(NCCC(=O)N(C)CCOCCOCCOCCOCC(=O)N[C@H](C(=O)N3C[C@H](O)C[C@H]3C(=O)N[C@@H](C)c3ccc(-c4scnc4C)cc3)C(C)(C)C)nc3c(F)c(-c4cc(O)cc5ccccc45)c(Cl)cc23)CC1 [compound 189, (2S,4R)-1-((2S)-2-(tert-butyl)-21-((6-chloro-8-fluoro-7-(3-hydroxynaphthalen-1-yl)-4-(4-propionylpiperazin-1-yl)quinazolin-2-yl)amino)-18-methyl-4,19-dioxo-6,9,12,15-tetraoxa-3,18-diazahenicosanoyl)-4-hydroxy-N-((S)-1-(4-(4-methylthiazol-5-yl)phenyl)ethyl)pyrrolidine-2-carboxamide] |
|  |  |  |  |  |  |  | C (C ≤ 35) | C (C ≤ 35) | C (C ≤ 35) | ≤ 35% | CCC(=O)N1CCN(c2nc(NCCC(=O)N(C)CCOCCOCCOCCOCCOCC(=O)N[C@H](C(=O)N3C[C@H](O)C[C@H]3C(=O)N[C@@H](C)c3ccc(-c4scnc4C)cc3)C(C)(C)C)nc3c(F)c(-c4cc(O)cc5ccccc45)c(Cl)cc23)CC1 [compound 190, (2S,4R)-1-((2S)-2-(tert-butyl)-24-((6-chloro-8-fluoro-7-(3-hydroxynaphthalen-1-yl)-4-(4-propionylpiperazin-1-yl)quinazolin-2-yl)amino)-21-methyl-4,22-dioxo-6,9,12,15,18-pentaoxa-3,21-diazatetracosanoyl)-4-hydroxy-N-((S)-1-(4-(4-methylthiazol-5-yl)phenyl)ethyl)pyrrolidine-2-carboxamide] |
